According to PMC9676923, “Characterization of relaxin 3 and its receptors in chicken: Evidence for relaxin 3 acting as a novel pituitary hormone” (Frontiers in Physiology, 2022):

Experiments:
cRXFP1 [1] = experiment: pGL3-NFAT-RE-luciferase reporter (calcium mobilization), HEK293 cells expressing cRXFP1; format: cell-based, chicken; settings: rhRLN3 10^-12 to 10^-7 M, 6 h, HEK293 cells transiently expressing cRXFP1, N = 3, read-out: EC50, Ca^2+, cRXFP1
Description: (§1) According to our previously established methods ([Liu et al., 2019]; [Jiang et al., 2022]), two cell-based luciferase reporter systems (pGL3-CRE-luciferase and pGL3-NFAT-RE-luciferase) were used to verify whether cRLN3cm is biologically active and capable of activating cRXFP1 and cRXFP3. In brief, HEK293 cells transiently expressing each receptor (cRXFP1 and cRXFP3) were treated with 30 μl serum-free medium containing cRLN3cm or pcDNAcm (0.001–10 μl) for 6 h, and the receptor-activated cAMP/PKA pathways and calcium mobilization were then monitored by pGL3-CRE-luciferase and pGL3-NFAT-RE-luciferase reporter systems, respectively. HEK293 cells expressing empty pcDNA3.1 (+) were used as a negative control.
(§2) To compare the functional difference between chicken RLN3 and human RLN3, recombinant human RLN3 (rhRLN3, 10^–12 to 10^–7 M, 6 h) was used to treat HEK293 cells expressing cRXFP1 or cRXFP3, respectively, and its potency in activating cRXFP1 and cRXFP3 was also evaluated.
(§3) To verify whether chicken RLN3 can activate RXFP1 or RXFP3, a cRLN3-conditioned medium (cRLN3cm, 0.001–10 μl) was used to treat HEK293 cells expressing cRXFP1/cRXFP3. Receptor activation was examined by pGL3-CRE-luciferase and pGL3-NFAT-RE-luciferase reporter systems established in our previous studies ([Liu et al., 2019]).

[2] = tested on: HEK293 cells transfected with an empty pcDNA3.1 (+) vector; experiment: Luciferase reporter control, HEK293 cells transfected with empty pcDNA3.1 (+) vector; format: cell-based; settings: rhRLN3 10^-12 to 10^-7 M, 6 h; pGL3-CRE and pGL3-NFAT-RE reporters; N = 3
Source text: According to our previously established methods ([Liu et al., 2019]; [Jiang et al., 2022]), two cell-based luciferase reporter systems (pGL3-CRE-luciferase and pGL3-NFAT-RE-luciferase) were used to verify whether cRLN3cm is biologically active and capable of activating cRXFP1 and cRXFP3. […] HEK293 cells expressing empty pcDNA3.1 (+) were used as a negative control.
To explore whether pituitary cells can secrete RLN3, we collected the extracellular medium of adult female chicken pituitary cells to detect its activation potential. According to the method provided in the previous article ([Sun et al., 2021]; [Liu et al., 2022]), the anterior pituitaries from a laying hen were isolated and further cut into small pieces with clean scissors. After washing with PBS, the cut pieces were then digested with 0.25% trypsin at 37°C for 30 min. The dispersed pituitary cells were cultured in Medium 199 supplemented with 10% fetal bovine serum in a Corning Cell BIND 48-well plate (Corning, Tewksbury, MA) at 37°C with 5% CO2. […] The HEK293 cells expressing cRXFP1 were treated with a 60 μl serum-free medium containing chicken pituitary cell extracellular medium (2 × 10^−3μl to 2 × 10^1 μl) for 6 h, and then receptor-activated calcium mobilization was monitored by pGL3-NFAT-RE-luciferase reporter systems. […]

cRXFP1 [3] = experiment: pGL3-CRE-luciferase reporter (cAMP/PKA), HEK293 cells expressing cRXFP1; format: cell-based, chicken
Description: as §1, §2, §3

cRXFP3 [4] = experiment: pGL3-CRE-luciferase reporter, inhibition of forskolin-stimulated luciferase activity, HEK293 cells expressing cRXFP3; format: cell-based, chicken; settings: rhRLN3 10^-12 to 10^-7 M, 6 h, HEK293 cells transiently expressing cRXFP3, N = 3, read-out: EC50, cAMP/PKA, cRXFP3 (inhibition of forskolin-stimulated luciferase activity)
Description: as §1, §2, §3

cRXFP3 [5] = experiment: pGL3-NFAT-RE-luciferase reporter (calcium mobilization), HEK293 cells expressing cRXFP3; format: cell-based, chicken; settings: rhRLN3 10^-12 to 10^-7 M, 6 h, N = 3
Description: as §1, §2, §3

[6] = tested on: E2 production during follicular development; settings: female teleost fish; ref Wilson et al., 2009; Yang et al., 2020; cited from earlier work
Source text: Supporting evidence also comes from the high expression of its cognate receptor (cRXFP1) in chicken tissues. Similar to rats, RXFP1 is highly expressed in the uterus involving uterine contractions ([Hsu et al., 2002]; [Vodstrcil et al., 2010]). In addition, cRXFP1 is also detected to be expressed highly in a wide range of female tissues (infundibulum, isthmus, uterus, and vagina), th ...

RXFP1 = settings: ref Sudo et al., 2003, cited from earlier work
Source text: As the typical member of the insulin superfamily, the RLNs bind their receptors to play their physiological roles. In mammals, RLN1 and RLN2 bind the relaxin family peptide 1 receptor (RXFP1) for downstream signaling ([Bathgate et al., 2013]). […] However, only a dose-dependent increase in luciferase activity in HEK293 cells expressing chicken cRXFP1 is detected in the present study which is different from the report in mammalian species that RXFP1 is capable of coupling to Gs and other G-proteins (Gi/o), thus showing a biphasic pattern o ...

RXFP3 [7] = settings: ref Liu et al., 2005; cited from earlier work
Source text: Although cRLN3 is able to activate both cRXFP1 and cRXFP3, the potency of cRLN3 for cRXFP1 activation is at least 10-fold higher than that for cRXFP3. […] The present study supports that chicken RLN3 is a functional analog of rhRLN3. However, our finding contrasts with that of mammalian species. […] The difference may result from ligand–receptor interaction mo ...

RXFP3 [8] = settings: human RXFP3, Gαi/o coupled, ref Liu et al., 2003b, 2005, Bathgate et al., 2006, van der Westhuizen et al., 2007; cited from earlier work
Source text: As the typical member of the insulin superfamily, the RLNs bind their receptors to play their physiological roles. In mammals, RLN1 and RLN2 bind the relaxin family peptide 1 receptor (RXFP1) for downstream signaling ([Bathgate et al., 2013]). As their cognate receptor, RXFP1, which is also called the leucine-rich repeat-containing G-protein-coupled receptor 7 (LGR7), is capable of coupling to multiple G-proteins, thus triggering the pathways including cAMP accumulation ([Halls et al., 2006]; [Halls et al., 2007]; [Halls et al., 2009]), ERK1/2 phosphorylation, NO production, and other signalin ...

[9] = intraventricular (icv) injection, ref McGowan et al., 2008, 2014; cited from earlier work
Source text: (§4) Since GnRH is pulsed secreted and negatively regulated by CRH ([Ciechanowska et al., 2010]), the expression of RLN3 mRNA may be regulated by CRH. As the key player in the hypothalam ...

[10] = tested on: rat hypothalamic explants; settings: ref McGowan et al., 2008, 2014; cited from earlier work
Source text: as §4

| EC50 (cRXFP1 [1]) | EC50 (cRXFP1 [3]; rhRLN3 10^-12 to 10^-7 M, 6 h, HEK293 cells transiently expressing cRXFP1, mean of three replicates (N = 3)) | EC50 (cRXFP3 [4]) | Substance | change of luciferase activity in empty-vector cells [2] | potency on cRXFP1 compared with cRXFP3 (in words) (cRXFP1 [3]; HEK293 cells expressing cRXFP1 or cRXFP3) | stimulation of luciferase activity (Ca^2+), cRXFP3 (cRXFP3 [5]) | production of E2 during follicular development [6] | RXFP1 activation, cAMP production (RXFP1; HEK293T cells) | RXFP1 activation in mammals (RXFP1; mammals, Halls et al., 2006) | potency on RXFP3 compared with RXFP1 in mammals (RXFP3 [7]) | RXFP3, cAMP level on ligand binding (RXFP3 [8]) | plasma LH, ACTH and corticosterone levels [9] | release of GnRH and CRH from hypothalamic explants [10] |
| --- | --- | --- | --- | --- | --- | --- | --- | --- | --- | --- | --- | --- | --- |
| 21.1 nM | 2.68 nM | 41.5 nM | recombinant human relaxin 3 [rhRLN3] | did not change the luciferase activity | higher potency for cRXFP1 activation | not cRXFP3 |  |  |  |  |  |  |  |
|  |  |  | relaxin 3 [RLN3] |  |  |  | promotes the production of E2 during follicular development | able to activate RXFP1 inducing a dose-dependent increase in cAMP production | RXFP1 can be activated by RLN3 | a higher potency for RXFP3 activation than for RXFP1 | cAMP level decrease upon ligand binding | can also increase plasma LH, ACTH, and corticosterone levels | can stimulate rat hypothalamic explants to release GnRH and CRH |
